Data published in patent US20240391923A1, “METHIONINE ADENOSYLTRANSFERASE 2A INHIBITOR FOR TREATING MTAP DELETION-TYPE CANCER” (SUZHOU GENHOUSE BIO CO., LTD., priority 2022, published 2024).
Like-named read-outs stand apart in the source and are kept apart here.

Key:
[1] = biological target: MAT2A recombinant protein (Homo sapiens, UniProt P31153); assay: MAT2A inhibitory activity (malachite green colorimetric enzyme assay); assay type: biochemical
Text: MAT2A catalyzes the reaction of L-methionine and ATP to generate S-adenosylmethionine (SAM), inorganic phosphonic acid, and inorganic diphosphonic acid. Malachite green reacts with inorganic phosphonic acid to generate a green product, and the enzyme activity of MAT2A can be indirectly reflected by detecting the content of the inorganic phosphonic acid in a sample.
The test compounds were formulated using DMSO and diluted 1:3 diluted through 10 concentration points to give a final starting concentration in the reaction system of 1000 nM. The test compounds at different concentrations described above were transferred to a 384-well plate. Experimental buffer (50 mM HEPES pH 7.5, 50 mM KCl, 10 mM MgCl2, 10 mM DTT) was prepared. 2×MAT2A recombinant protein was prepared using the buffer and added to a 384-well plate. A mixed solution of 2×L-methionine and ATP was prepared using the buffer, and added to a 384-well plate. The enzymatic reaction was started, and the reaction was carried out at room temperature for 60 min. 20 μL of a colorimetric detection reagent was added to the above system, and incubated at room temperature for 15 min. The absorbance at 630 nm was measured. The inhibition rate of the compound on the enzyme activity was calculated, and the inhibition rate value and the logarithm value of the compound concentration were fitted using non-linear regression (dose response-variable slope) to give the IC50 value of the test compound.

[2] = system: HCT116-MTAP-knockout (−/−) cell strain; assay: Tumor cell proliferation inhibition assay (CellTiter-Glo), HCT116-MTAP-knockout (-/-); assay type: cell-based; conditions: Homo sapiens, 120 h, 5-day treatment
Protocol: (§1) After the HCT116-MTAP-knockout (−/−) cell strain, the HCT116-MTAP wild-type(+/+)-cell strain, the DOHH-2 cell strain, or the Hut-78 cell strain was treated with the test compound for 5 days, the ATP level was measured using a CellTiter-Glo kit of Promega to evaluate the inhibition of the test compound against the growth of the tumor cell strain.
(§2) In the present application, the HCT116-MTAP-knockout (−/−) cell strain, the HCT116-MTAP wild-type (+/+)-cell strain, the DOHH-2 cell strain, or the Hut-78 cell strain was seeded into a 96-well cell culture plate at an appropriate cell density. After 24 h, the cells were treated using the test compounds diluted 1:3 fold at the highest concentration of 10 μM for 10 gradients, and a DMSO treatment group was set up separately. The cells were cultured in a 37° C./5% CO2 incubator for 5 days.

[3] = system: SDMA in human colon cancer cell line HCT116; assay: Cell symmetric dimethylarginine (SDMA) test, In-cell Western, HCT116 (MTAP wild-type); assay type: cell-based; conditions: Homo sapiens, HCT-116, 96 h
Text: MAT2A catalyzes the reaction of L-methionine and ATP to generate SAM, inorganic phosphonic acid, and inorganic diphosphonic acid. SAM is an important methyl donor, and is a substrate of arginine methyltransferase 5 (PRMT5). PRMT5 catalyzes SDMA modification of multiple proteins within a cell. The intracellular SDMA modification level was detected by ICW (In-cell Western), and the inhibition of the test compound on the enzymatic activity of intracellular MAT2A was indirectly reflected.
In the present application, the human colon cancer cell line HCT116 and the corresponding HCT116-MTAP-knockout cell line were seeded into a 96-well cell culture plate at an appropriate cell density. After 24 h, the cells were treated using the test compounds diluted 1:4 fold at the highest concentration of 6 μM for 6 gradients, and a DMSO treatment group was set up separately. The cells were cultured in a 37° C./5% CO2 incubator for 4 days. To test the inhibitory activity of the test compounds against tumor cell SDMA, the medium was discarded, and the plate was washed 3 times with PBST. 4% paraformaldehyde was then used at room temperature for fixation for 20 min. The fixation solution was discarded, the plate was washed 3 times with PBST, and a special blocking solution was added to each well for blocking at room temperature for 2 h. The blocking solution was discarded. After the plate was washed 3 times with PBST, the plate was incubated with SDMA antibody at 4° C. overnight. The next day, the plate was washed 3 times with PBST. The secondary antibody and DRAQ5 were diluted to an appropriate concentration with the blocking solution, and incubated at room temperature for 2 h; the plate was washed 3 times with PBST, and the fluorescence signals at 700 nm and 800 nm were detected using a Li—COR Odyssey two-color near-infrared laser imager.
The data was then processed. After the corresponding background value was subtracted from each well, statistical analysis was performed on the 800 nm/700 nm ratio for each well, a sigmoidal dose-inhibition curve was plotted using a non-linear regression model, and IC50 values were fitted and calculated. Inhibition Rate (%)=(1−SDMA dose/SDMA DMSO control)*100. SDMA dose is the value of the drug treatment group, and SDMA DMSO control is the value of the DMSO control group.

[4] = system: SDMA in HCT116-MTAP-knockout cell line; assay: Cell symmetric dimethylarginine (SDMA) test, In-cell Western, HCT116-MTAP-knockout; assay type: cell-based; conditions: Homo sapiens, 96 h
[5] = system: HCT116-MTAP wild-type (+/+)-cell strain; assay: Tumor cell proliferation inhibition assay (CellTiter-Glo), HCT116-MTAP wild-type (+/+); assay type: cell-based; conditions: Homo sapiens, 120 h, 5-day treatment
Protocol: as §1, §2

[6] = IC50 score class, read-out: MAT2A Inhibition (score)
[7] = HCT116-MTAP-knockout (−/−) cells, IC50 score, read-out: Tumor cell 5-day relative growth inhibition (HCT116-MTAP−/−) (nM), score
[8] = HCT116-MTAP-knockout (−/−) cells, IC50 value, read-out: Tumor cell 5-day relative growth inhibition (HCT116-MTAP−/−)
[9] = IC50 score class, read-out: Cell 96 h SDMA Inhibition (HCT116-MTAP+/+) (score)
[10] = read-out: Cell 96 h SDMA inhibition (HCT116-MTAP+/+)
[11] = IC50 score class, read-out: Cell 96 h SDMA Inhibition (HCT116-MTAP−/−) (score)
[12] = read-out: Cell 96 h SDMA Inhibition (HCT116-MTAP−/−)
[13] = HCT116-MTAP wild-type (+/+) cells, IC50 score, read-out: Tumor cell 5-day relative growth inhibition (HCT116-MTAP+/+) (nM), score
[14] = HCT116-MTAP wild-type (+/+) cells, IC50 value, read-out: Tumor cell 5-day relative growth inhibition (HCT116-MTAP+/+)

Chain of MAT2A recombinant protein (P31153 whole entry): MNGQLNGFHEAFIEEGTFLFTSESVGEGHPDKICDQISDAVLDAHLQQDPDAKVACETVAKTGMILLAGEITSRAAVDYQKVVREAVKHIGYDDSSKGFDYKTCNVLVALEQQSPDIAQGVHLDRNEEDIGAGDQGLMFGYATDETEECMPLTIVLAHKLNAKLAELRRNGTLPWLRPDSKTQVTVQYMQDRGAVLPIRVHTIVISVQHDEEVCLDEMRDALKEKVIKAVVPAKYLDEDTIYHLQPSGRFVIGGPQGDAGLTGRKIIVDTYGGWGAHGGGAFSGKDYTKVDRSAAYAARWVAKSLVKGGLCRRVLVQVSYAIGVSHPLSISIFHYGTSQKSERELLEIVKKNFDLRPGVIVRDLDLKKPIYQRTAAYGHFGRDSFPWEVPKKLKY

Structure (SMILES)	IC50 [1, 6] [nM]	IC50 ([1]; read-out: MAT2A Inhibition) [nM]	IC50 [2, 7] [nM]	IC50 [2, 8] [nM]	IC50 [3, 9] [nM]	IC50 [3, 10] [nM]	IC50 [4, 11] [nM]	IC50 [4, 12] [nM]	IC50 [5, 13] [nM]	IC50 [5, 14] [nM]	IC50 ([5]; HCT116-MTAP+/+ cells, IC50 class score, read-out: Tumor cell 5-day relative growth inhibition (HCT116-MTAP+/+) (nM), score) [nM]	IC50 ([5]; HCT116-MTAP+/+ cells, read-out: Tumor cell 5-day relative growth inhibition (HCT116-MTAP+/+)) [nM]	IC50 ([2]; HCT116-MTAP−/− cells, IC50 class score, read-out: Tumor cell 5-day relative growth inhibition (HCT116-MTAP−/−) (nM), score) [nM]	IC50 ([2]; HCT116-MTAP−/− cells, read-out: Tumor cell 5-day relative growth inhibition (HCT116-MTAP−/−)) [nM]
CCn1cc2c(n1)c(=O)n(-c1ccccc1)c1cc(Cl)ccc21 [Compound B2]	100 to 1000	105	≥ 2000	2830										
Cn1cc2c(n1)c(=O)n(-c1cccc(O)c1)c1cc(Cl)ccc21 [Compound B152]	< 100	71.8			> 3000	17400	200 to 1000	228						
COc1cc2c3cn(C)nc3c(=O)n(-c3cccnc3)c2cc1Cl [Compound B171]	< 100	61.8			> 3000	> 3000	200 to 1000	818						
Cn1cc2c(n1)c(=O)n(-c1cccnc1)c1cc(Cl)cc(F)c21 [Compound B172]	< 100	68.1			1000 to 3000	2210	200 to 1000	771						
Cn1cc2c(n1)c(=O)n(-c1cncc(F)c1)c1nc(C(F)(F)F)ccc21 [Compound B202]	< 100	49.9			> 3000	15300	1000 to 3000	1440						
Cn1cc2c(n1)c(=O)n(-c1cccc(C(N)=O)c1)c1nc(C(F)(F)F)ccc21 [Compound B234]	< 100	25.5			> 3000	> 3000	1000 to 3000	1370						
Cn1cc2c(n1)c(=O)n(Cc1cn[nH]c1)c1cc(Cl)ccc21 [Compound B235]	100 to 1000	668			> 3000	> 3000	> 3000	4280						
O=c1c2nn(C(F)F)cc2c2cc(F)c(Cl)cc2n1-c1cccc2[nH]ncc12 [Compound B260]	< 100	17	< 500	69.7			< 200	57.5						
Cn1cc2c(n1)c(=O)n(-c1cccc3[nH]ncc13)c1nc(C(F)(F)F)c(C#N)cc21 [Compound B281]	< 100	30			> 3000	> 10000	< 200	25						
Cn1cc2c(n1)c(=O)n(-c1cccc3[nH]nc(Br)c13)c1cc(Cl)ccc21 [Compound B332]	< 100	39			> 3000	> 10000	< 200	9						
Cn1cc2c(n1)c(=O)n(-c1cccnc1C(F)(F)F)c1cc(Cl)c(F)cc21 [Compound B342]			< 500	355					≥ 2000	> 10000				
Cn1cc2c(n1)c(=O)n(-c1cccnc1C1CC1)c1cc(Cl)c(C#N)cc21 [Compound B348]			≥ 2000	> 10000					≥ 2000	≥ 10000				
Cn1cnc2c(=O)n(-c3cccc4[nH]ncc34)c3cc(Cl)c(C#N)cc3c21 [Compound B375]			≥ 2000	> 10000					≥ 2000	> 10000				
Cn1cc2c(n1)c(=O)n(-c1cccc3[nH]ncc13)c1cc(C(F)(F)F)c(C#N)cc21 [Compound B391]	< 100	10			> 3000	> 10000	< 200	11						
CCOc1ccc2c3cn(C)nc3c(=O)n(-c3ccc(OC(F)F)cc3)c2n1 [Compound B400]											≥ 2000	> 10000	≥ 2000	> 10000
Cn1cc2c(n1)c(=O)n(-c1cccc3[nH]nc(F)c13)c1cc(Cl)c(F)cc21 [Compound B411]	< 100	10			> 3000	> 10000	< 200	5.2						
Cn1cc2c(n1)c(=O)n(-c1cccc3[nH]nc(Cl)c13)c1cc(Cl)c(F)cc21 [Compound B412]	< 100	6.4			> 3000	> 10000	< 200	5.8						
Cn1cc2c(n1)c(=O)n(-c1cccc3[nH]nc(Br)c13)c1cc(Cl)c(F)cc21 [Compound B413]	< 100	7.4			> 3000	> 10000	< 200	9.1						
